Reference: patent US20220241249A1, “PHARMACEUTICAL COMPOSITION AND KIT CONTAINING NOVEL PENAM DERIVATIVE OR SALT THEREOF AND ONE OR MORE COMPOUNDS SELECTED FROM beta-LACTAMASE INHIBITORY COMPOUND AND ANTIBACTERIAL COMPOUND OR SALTS THEREOF” (priority 2019, published 2022)
Values after ≈ are worked out from the molar mass of the structure shown. Read-outs that look alike come from different tables or passages of the source.

Legend:
Assay in all cases: Antibacterial activity evaluation test, MIC by broth microdilution (CLSI)
Assay type in all cases: cell-based
[1] = test system: GES-19 and GES-20-containing Pseudomonas aeruginosa strain (S-3759); conditions: for MIC: Pseudomonas aeruginosa
Description: (§1) The minimum inhibitory concentration (MIC) was measured according to the Clinical and Laboratory Standards Institute (CLSI) standard method by using the following broth microdilution method.
(§2) As bacteria, a Pseudomonas aeruginosa strain ATCC27853, an AmpC-derepressed Pseudomonas aeruginosa mutant strain (S-3028), an IMP-1-containing Pseudomonas aeruginosa strain (S-2838), a VIM-2-containing Pseudomonas aeruginosa strain (S-3779), a GES-19 and GES-20-containing Pseudomonas aeruginosa strain (S-3759), a CTX-M-15-containing Escherichia coli strain (TK-1747), a KPC-2-containing Klebsiella pneumoniae strain (Y-995), an OXA-48-containing Klebsiella pneumoniae strain (Y-1062), and an NDM-1-containing Klebsiella pneumoniae strain (Y-1007) were used. The test bacterial cells that had been cultured overnight on a Mueller Hinton agar medium were scraped off, suspended at a density equivalent to 0.5 McFarland standard, and diluted 10-fold, thereby obtaining an inoculum. A cation-adjusted Mueller Hinton medium containing a test compound was inoculated with 0.005 mL of the inoculum, and the cells were cultured at 35° C. for 16 to 20 hours. The minimum drug concentration at which the growth of bacteria was not visually observed was defined as MIC (μg/mL).
(§3) An antibacterial activity evaluation test was performed in the same manner as in Test Example 1.

[2] = test system: IMP-1-containing Pseudomonas aeruginosa strain (S-2838); conditions: for MIC: Pseudomonas aeruginosa
Description: as §1, §2, §3

[3] = test system: CTX-M-15-containing Escherichia coli strain (TK-1747); conditions: for MIC: Escherichia coli
Description: as §1, §2, §3

[4] = test system: NDM-1-containing Klebsiella pneumoniae strain (Y-1007); conditions: for MIC: Klebsiella pneumoniae
Description: as §1, §2, §3

[5] = test system: KPC-2-containing Klebsiella pneumoniae strain (Y-995); conditions: for MIC: Klebsiella pneumoniae
Description: as §1, §2, §3

[6] = test system: VIM-2-containing Pseudomonas aeruginosa strain (S-3779); conditions: for MIC: Pseudomonas aeruginosa
Description: as §1, §2, §3

[7] = test system: Pseudomonas aeruginosa strain ATCC27853; conditions: ATCC27853
Description: as §1, §2, §3

[8] = test system: AmpC-derepressed Pseudomonas aeruginosa mutant strain (S-3028); conditions: for MIC: Pseudomonas aeruginosa
Description: as §1, §2, §3

[9] = test system: OXA-48-containing Klebsiella pneumoniae strain (Y-1062); conditions: for MIC: Klebsiella pneumoniae
Description: as §1, §2, §3

Compound | MIC [1] | MIC [2] | MIC [3] | MIC [4] | MIC [5] | MIC [6] | MIC ([7]; Pseudomonas aeruginosa) | MIC [8] | MIC [9] | Antibacterial activity (MIC) Pseudomonas aeruginosa S-3759 ([1]; Pseudomonas aeruginosa S-3759) | Antibacterial activity (MIC) Pseudomonas aeruginosa S-2838 ([2]; Pseudomonas aeruginosa S-2838) | Antibacterial activity (MIC) Escherichia coli TK-1747 ([3]; Escherichia coli TK-1747) | Antibacterial activity (MIC) Klebsiella pneumoniae Y-1007 ([4]; Klebsiella pneumoniae Y-1007) | Antibacterial activity (MIC) Klebsiella pneumoniae Y-995 ([5]; Klebsiella pneumoniae Y-995) | Antibacterial activity (MIC) Pseudomonas aeruginosa S-3779 ([6]; Pseudomonas aeruginosa S-3779) | Antibacterial activity (MIC) Pseudomonas aeruginosa ATCC 27853 ([7]; Pseudomonas aeruginosa) | Antibacterial activity (MIC) Pseudomonas aeruginosa S-3028 ([8]; Pseudomonas aeruginosa S-3028) | Antibacterial activity (MIC) Klebsiella pneumoniae Y-1062 ([9]; Klebsiella pneumoniae Y-1062) | MIC ([7]; Pseudomonas aeruginosa ATCC 27853, 35° C., 16 to 20 hours, read-out: MIC)
CC(C)(O/N=C(\C(=O)N[C@@H]1C(=O)N2C[C@@](C(=O)O)(n3cc(CNC(=O)c4ccc(O)c(O)c4Cl)nn3)S[C@H]12)c1csc(N)n1)C(=O)O [Example 74, (3R,5R,6R)-6-((Z)-2-(2-aminothiazol-4-yl)-2-(((2-carboxypropan-2-yl)oxy)imino)acetamido)-3-(4-((2-chloro-3,4-dihydroxybenzamido)methyl)-1H-1,2,3-triazol-1-yl)-7-oxo-4-thia-1-azabicyclo[3.2.0]heptane-3-carboxylic acid] | 1 µg/mL (≈ 1.41 µM) | 0.25 µg/mL (≈ 0.352 µM) | 1 µg/mL (≈ 1.41 µM) | 0.25 µg/mL (≈ 0.352 µM) | 2 µg/mL (≈ 2.82 µM) | 1 µg/mL (≈ 1.41 µM) | 0.5 µg/mL (≈ 0.704 µM) | 0.5 µg/mL (≈ 0.704 µM) | 4 µg/mL (≈ 5.63 µM) |  |  |  |  |  |  |  |  |  | 
Nc1nc(/C(=N/OC2(C(=O)O)CC2)C(=O)N[C@@H]2C(=O)N3C[C@@](C(=O)O)(N4CCN(NC(=O)C(=O)c5ccc(O)c(O)c5Cl)C4=O)S[C@H]23)c(Cl)s1 [Example 76, (3R,5R,6R)-6-((Z)-2-(2-amino-5-chlorothiazol-4-yl)-2-((1-carboxycyclopropoxy)imino)acetamido)-3-(3-(2-(2-chloro-3,4-dihydroxyphenyl)-2-oxoacetamido)-2-oxoimidazolidin-1-yl)-7-oxo-4-thia-1-azabicyclo[3.2.0]heptane-3-carboxylic acid] | 0.25 µg/mL (≈ 0.323 µM) | 0.5 µg/mL (≈ 0.646 µM) | 0.06 µg/mL (≈ 0.0776 µM) | 0.25 µg/mL (≈ 0.323 µM) | 0.25 µg/mL (≈ 0.323 µM) | 0.25 µg/mL (≈ 0.323 µM) | 0.5 µg/mL (≈ 0.646 µM) | 0.12 µg/mL (≈ 0.155 µM) | 0.25 µg/mL (≈ 0.323 µM) |  |  |  |  |  |  |  |  |  | 
C[C@H]1CN(/N=C/CNC(=O)c2ccc(O)c(O)c2Cl)C(=O)N1[C@]1(C(=O)O)CN2C(=O)C(NC(=O)/C(=N\OC(C)(C)C(=O)O)c3csc(N)n3)[C@H]2S1 (stereo partly drawn) [Example 45] | 2 µg/mL (≈ 2.6 µM) | 2 µg/mL (≈ 2.6 µM) | 0.12 µg/mL (≈ 0.156 µM) | < 0.06 µg/mL | 0.25 µg/mL (≈ 0.325 µM) | 1 µg/mL (≈ 1.3 µM) | 1 µg/mL (≈ 1.3 µM) | 2 µg/mL (≈ 2.6 µM) | 1 µg/mL (≈ 1.3 µM) |  |  |  |  |  |  |  |  |  | 
CC(C)(O/N=C(\C(=O)N[C@@H]1C(=O)N2C[C@@](C(=O)O)(N3CCN(NC(=O)c4c[nH]c5cc(O)c(O)cc5c4=O)C3=O)S[C@H]12)c1csc(N)n1)C(=O)O [Example 154, (3R,5R,6R)-6-((Z)-2-(2-aminothiazol-4-yl)-2-(((2-carboxypropan-2-yl)oxy)imino)acetamido)-3-(3-(6,7-dihydroxy-4-oxo-1,4-dihydroquinoline-3-carboxamido)-2-oxoimidazolidin-1-yl)-7-oxo-4-thia-1-azabicyclo[3.2.0]heptane-3-carboxylic acid] |  |  |  |  |  |  |  |  |  | 4 µg/mL | 4 µg/mL | 0.5 µg/mL | 0.25 µg/mL | 0.25 µg/mL | 2 µg/mL | 2 µg/mL | 0.5 µg/mL | 2 µg/mL | 
Nc1nc(/C(=N/OC2(C(=O)O)CCC2)C(=O)N[C@@H]2C(=O)N3C[C@@](C(=O)O)(N4CCN(NC(=O)C(=O)c5ccc(O)c(O)c5Cl)C4=O)S[C@H]23)c(Cl)s1 [Example 78, (3R,5R,6R)-6-((Z)-2-(2-amino-5-chlorothiazol-4-yl)-2-((1-carboxycyclobutoxy)imino)acetamido)-3-(3-(2-(2-chloro-3,4-dihydroxyphenyl)-2-oxoacetamido)-2-oxoimidazolidin-1-yl)-7-oxo-4-thia-1-azabicyclo[3.2.0]heptane-3-carboxylic acid] | 1 µg/mL (≈ 1.27 µM) | 1 µg/mL (≈ 1.27 µM) | 0.25 µg/mL (≈ 0.317 µM) | < 0.06 µg/mL | 0.25 µg/mL (≈ 0.317 µM) | 0.25 µg/mL (≈ 0.317 µM) | 0.5 µg/mL (≈ 0.635 µM) | < 0.06 µg/mL | 0.25 µg/mL (≈ 0.317 µM) |  |  |  |  |  |  |  |  |  | 
CC(C)(O/N=C(\C(=O)N[C@@H]1C(=O)N2C[C@@](C(=O)O)(N3CCN(NC(=O)C(=O)c4ccc(O)c(O)c4Cl)C3=O)S[C@H]12)c1nc(N)sc1Cl)C(=O)O [Example 22, (3R,5R,6R)-6-((Z)-2-(2-amino-5-chlorothiazol-4-yl)-2-(((2-carboxypropan-2-yl)oxy)imino)acetamido)-3-(3-(2-(2-chloro-3,4-dihydroxyphenyl)-2-oxoacetamido)-2-oxoimidazolidin-1-yl)-7-oxo-4-thia-1-azabicyclo[3.2.0]heptane-3-carboxylic acid] | 0.5 µg/mL (≈ 0.645 µM) | 0.5 µg/mL (≈ 0.645 µM) | < 0.06 µg/mL | < 0.06 µg/mL | 0.06 µg/mL (≈ 0.0774 µM) | 0.25 µg/mL (≈ 0.322 µM) | 0.5 µg/mL (≈ 0.645 µM) | 0.5 µg/mL (≈ 0.645 µM) | 0.06 µg/mL (≈ 0.0774 µM) |  |  |  |  |  |  |  |  |  | 
CC(C)(O/N=C(\C(=O)N[C@@H]1C(=O)N2C[C@@](C(=O)O)(N3CCN(/N=C/C=N/NC(=O)NCCNC(=O)c4ccc(O)c(O)c4Cl)C3=O)S[C@H]12)c1csc(N)n1)C(=O)O [Example 53, (3R,5R,6R)-6-((Z)-2-(2-aminothiazol-4-yl)-2-(((2-carboxypropan-2-yl)oxy)imino)acetamido)-3-(3-(((1E,2E)-2-(2-((2-(2-chloro-3,4-dihydroxybenzamido)ethyl)carbamoyl)hydrazono)ethylidene)amino)-2-oxoimidazolidin-1-yl)-7-oxo-4-thia-1-azabicyclo[3.2.0]heptane-3-carboxylic acid] | 2 µg/mL (≈ 2.34 µM) | 4 µg/mL (≈ 4.69 µM) | 2 µg/mL (≈ 2.34 µM) | 0.12 µg/mL (≈ 0.141 µM) | 2 µg/mL (≈ 2.34 µM) | 0.5 µg/mL (≈ 0.586 µM) | 0.5 µg/mL (≈ 0.586 µM) | 1 µg/mL (≈ 1.17 µM) | 0.5 µg/mL (≈ 0.586 µM) |  |  |  |  |  |  |  |  |  | 
CC(C)(O/N=C(\C(=O)N[C@@H]1C(=O)N2C[C@@](C(=O)O)(N3CCN(NC(=O)C(=O)NCCNC(=O)c4ccc(O)c(O)c4Cl)C3=O)S[C@H]12)c1csc(N)n1)C(=O)O [Example 68, (3R,5R,6R)-6-((Z)-2-(2-aminothiazol-4-yl)-2-(((2-carboxypropan-2-yl)oxy)imino)acetamido)-3-(3-(2-((2-(2-chloro-3,4-dihydroxybenzamido)ethyl)amino)-2-oxoacetamido)-2-oxoimidazolidin-1-yl)-7-oxo-4-thia-1-azabicyclo[3.2.0]heptane-3-carboxylic acid] | 4 µg/mL (≈ 4.84 µM) | 1 µg/mL (≈ 1.21 µM) | 1 µg/mL (≈ 1.21 µM) | < 0.06 µg/mL | 0.5 µg/mL (≈ 0.604 µM) | 2 µg/mL (≈ 2.42 µM) |  | 0.25 µg/mL (≈ 0.302 µM) | 1 µg/mL (≈ 1.21 µM) |  |  |  |  |  |  |  |  |  | 1 µg/mL (≈ 1.21 µM)
C[C@H]1CN(/N=C/CNC(=O)C(=O)c2ccc(O)c(O)c2Cl)C(=O)N1[C@]1(C(=O)O)CN2C(=O)C(NC(=O)/C(=N\OC(C)(C)C(=O)O)c3csc(N)n3)[C@H]2S1 (stereo partly drawn) [Example 47] | 1 µg/mL (≈ 1.26 µM) | 4 µg/mL (≈ 5.02 µM) | < 0.06 µg/mL | < 0.06 µg/mL | 0.5 µg/mL (≈ 0.628 µM) | 1 µg/mL (≈ 1.26 µM) | 0.5 µg/mL (≈ 0.628 µM) | 0.12 µg/mL (≈ 0.151 µM) | 0.25 µg/mL (≈ 0.314 µM) |  |  |  |  |  |  |  |  |  | 
Nc1nc(/C(=N/OC2(C(=O)O)CC2)C(=O)N[C@@H]2C(=O)N3C[C@@](C(=O)O)(N4CCN(NC(=O)c5ccc(O)c(O)c5Cl)C4=O)S[C@H]23)cs1 [Example 8, (3R,5R,6R)-6-((Z)-2-(2-aminothiazol-4-yl)-2-((1-carboxycyclopropoxy)imino)acetamido)-3-(3-(2-chloro-3,4-dihydroxybenzamido)-2-oxoimidazolidin-1-yl)-7-oxo-4-thia-1-azabicyclo[3.2.0]heptane-3-carboxylic acid] | 2 µg/mL (≈ 2.81 µM) | 4 µg/mL (≈ 5.63 µM) | 0.12 µg/mL (≈ 0.169 µM) | < 0.06 µg/mL | 0.06 µg/mL (≈ 0.0844 µM) | 1 µg/mL (≈ 1.41 µM) | 0.25 µg/mL (≈ 0.352 µM) | 0.5 µg/mL (≈ 0.703 µM) | 16 µg/mL (≈ 22.5 µM) |  |  |  |  |  |  |  |  |  | 
